Data from patent US5145955A, “Process for the preparation and composition of a fraction containing picroside I and kutkoside” (Council of Scientific & Industrial Research, priority 1991, dated 1992).
Where two headings read alike, the source gives them in different places.

Tests used:
[1] = tested on: thioacetamide induced hepatic damage (liver); test: Protection against thioacetamide induced biochemical changes in liver in rat; type: in vivo
Description: Although cucurbitacin glucoside (III) was a known compound, its biological activity is reported here for the first time. […] At higher dose (1 mg/kg) also, it reversed the decrease in levels of DNA (56%), RNA (100%) and glycogen (36%).

[2] = tested on: liver and serum biochemical parameters; test: Protection against altered liver and serum biochemical parameters (toxicant not given); type: in vivo
isolated rat hepatocytes = type: cell-based; settings: paracetamol-toxicated
Description: In the isolated hepatocyte preparation the, hepatoprotective activity was assessed against paracetamol, galactosamine carbon tetrachloride and thioacetamide induced damage.
The effect of cucurbitacin glucoside and F006 was also studied on paracetamol-toxicated isolated rat hepatocytes (ex vivo). At the doses of 0.5 and 1 mg/kg po×7.

cholestasis = test: Anticholestatic effect against induced cholestasis; type: in vivo; settings: paracetamol induced; 0.5 and 1 mg/kg po × 7
[3] = tested on: Plasmodium berghei infection in mastomys; test: Hepatoprotective activity against Plasmodium berghei infection-induced hepatic damage; type: in vivo; settings: 1 mg/kg po × 15 days
[4] = tested on: bile flow (choleretic effect); test: Choleretic effect of cucurbitacin glucoside and F006 (bile volume and bile contents); type: in vivo
[5] = dose not given, range given for both agents

SMILES: CC(=O)OC(C)(C)C=CC(=O)C(C)(O)C1C(O)CC2(C)C3CC=C4C(CC(O[C@@H]5O[C@H](CO)[C@@H](O)[C@H](O)[C@H]5O)C(O)C4(C)C)C3(C)CCC12C (stereo partly drawn) [Cucurbitacin glucoside, 25-acetoxy-2β-D-glucopyranoxy-3,16,20-trihydroxy-9-methyl-19-norlanosta-5,23-diene-22-one]
- toxicant-induced decrease in activity of succinate dehydrogenase ([1]; higher dose (1 mg/kg)): reversed significantly
- toxicant-induced increase in activity of acid ribonuclease ([1]; higher dose (1 mg/kg)): reversed significantly
- protection against decrease in DNA level in liver ([1]; thioacetamide, 0.48 mg/kg): 94%
- protection against decrease in RNA level in liver ([1]; thioacetamide, 0.48 mg/kg): 95%
- protection against decrease in glycogen level in liver ([1]; thioacetamide, 0.48 mg/kg): 60%
- reversal of decrease in DNA level ([1]; thioacetamide, 1 mg/kg): 56%
- reversal of decrease in RNA level ([1]; thioacetamide, 1 mg/kg): 100%
- reversal of decrease in glycogen level ([1]; thioacetamide, 1 mg/kg): 36%
- activity of cytochrome P450 ([2]; 1 mg/kg): significantly restored
- activity of γ-glutamyl transpeptidase ([2]; 1 mg/kg): significantly restored
- level of DNA ([2]; 1 mg/kg): significant reversal
- level of RNA ([2]; 1 mg/kg): significant reversal
- level of glycogen ([2]; 1 mg/kg): significant reversal
- serum level of GOT ([2]; 1 mg/kg): restored almost completely towards normal
- serum level of GPT ([2]; 1 mg/kg): restored almost completely towards normal
- level of bilirubin in serum ([2]; dose not given): recovered
- level of protein in serum ([2]; dose not given): recovered
- protection, level of phospholipids ([2]; dose not given): significant protection
- protection, 5'-nucleotidase activity [2, 5]: 46-56%
- protection, acid ribonuclease activity [2, 5]: 48-96%
- protection, glucose-6-phosphatase activity [2, 5]: 46-61%
- protection, level of DNA [2, 5]: 55-78%
- protection, level of protein [2, 5]: 96-100%
- recovery of increased level of total lipids [2, 5]: 44-55%
- protection by Trypan blue exclusion test (cell viability) (isolated rat hepatocytes; 0.5 mg/kg po × 7): 97.4%
- rate of oxygen consumption / oxygen uptake test (isolated rat hepatocytes; 0.5 mg/kg po × 7): 100%
- protection by Trypan blue exclusion test (cell viability) (isolated rat hepatocytes; 1 mg/kg po × 7): 100%
- rate of oxygen consumption / oxygen uptake test (isolated rat hepatocytes; 1 mg/kg po × 7): 100%
- reversal of decrease in bile acids (cholestasis): completely reversed
- reversal of decrease in bile flow (cholestasis): completely reversed
- reversal of decrease in bile salts (cholestasis): completely reversed
- protection against hepatic damage (biochemical parameters in serum and liver) [3]: marked protection
- increase in bile salts ([4]; 0.5 mg/kg): 40%
- increase in cholic acid ([4]; 0.5 mg/kg): 38.5%
- increase in deoxycholic acid ([4]; 0.5 mg/kg): 47.6%
- increase in volume of bile / bile flow ([4]; 0.5 mg/kg): 38%
- increase in bile salts ([4]; 1 mg/kg): 100%
- increase in cholic acid ([4]; 1 mg/kg): 100%
- increase in deoxycholic acid ([4]; 1 mg/kg): 100%
- increase in volume of bile / bile flow ([4]; 1 mg/kg): 90%
